Test results reported in ChEMBL document CHEMBL1150608, “Five new labdane diterpenes from Aster oharai” (2002).
Values after ≈ are worked out from the molar mass of the structure shown.

How the values were obtained:
Type in all cases: functional
Conditions in all cases: read-out: ED50 (the source's name)
SK-OV-3 = assay: Cytotoxicity against human SKOV3 cells by sulforhodamine B method
A549 = assay: Cytotoxicity against human A549 cells by sulforhodamine B method
HCT-15 = assay: Cytotoxicity against human HCT15 cells by sulforhodamine B method
SK-MEL-2 = assay: Cytotoxicity against human SK-MEL-2 cells by sulforhodamine B method
SNB-19 = assay: Cytotoxicity against human SNB19 cells by sulforhodamine B method
LOX IMVI = assay: Cytotoxicity against human LOXIMVI cells by sulforhodamine B method
U-251 = assay: Cytotoxicity against human U251 cells by sulforhodamine B method
SW-620 = assay: Cytotoxicity against human SW620 cells by sulforhodamine B method

SMILES	EC50 (SK-OV-3)	EC50 (A549)	EC50 (HCT-15)	EC50 (SK-MEL-2)	EC50 (SNB-19)	EC50 (LOX IMVI)	EC50 (U-251)	EC50 (SW-620)
C=C[C@@](C)(CC[C@H]1C(C)=CC[C@H]2C(C)(C)CCC[C@]12C)O[C@@H]1O[C@@H](C)[C@H](O)[C@@H](O)[C@H]1OC(C)=O	> 10 µg/mL	> 10 µg/mL	> 10 µg/mL	> 10 µg/mL	> 10 µg/mL	> 10 µg/mL	> 10 µg/mL	> 10 µg/mL
C=C[C@@](C)(CCC1=C(C)[C@H](OO)C[C@H]2C(C)(C)CCC[C@]12C)O[C@@H]1O[C@@H](C)[C@@H](OC(C)=O)[C@H](O)[C@H]1O	> 10 µg/mL	> 10 µg/mL	> 10 µg/mL	> 10 µg/mL	> 10 µg/mL	> 10 µg/mL	> 10 µg/mL	> 10 µg/mL
C=C[C@@](C)(CC[C@H]1C(C)=CC[C@H]2C(C)(C)CCC[C@]12C)O[C@@H]1O[C@@H](C)[C@H](OC(C)=O)[C@@H](O)[C@H]1O	> 10 µg/mL	> 10 µg/mL	> 10 µg/mL	> 10 µg/mL	> 10 µg/mL	> 10 µg/mL	> 10 µg/mL	> 10 µg/mL
C=C[C@@](C)(CC[C@H]1C(C)=CC[C@H]2C(C)(C)CCC[C@]12C)O[C@@H]1O[C@@H](C)[C@H](O)[C@@H](OC(C)=O)[C@H]1O	> 10 µg/mL	> 10 µg/mL	> 10 µg/mL	> 10 µg/mL	> 10 µg/mL	> 10 µg/mL	> 10 µg/mL	> 10 µg/mL
COc1cccc2c1C(=O)c1c(O)c3c(c(O)c1C2=O)C[C@@](O)(C(=O)CO)C[C@@H]3O[C@H]1C[C@H](N)[C@H](O)[C@H](C)O1 [DOXORUBICIN]	0.01 µg/mL (≈ 0.0184 µM)	0.001 µg/mL (≈ 0.00184 µM)	0.006 µg/mL (≈ 0.011 µM)	0.002 µg/mL (≈ 0.00368 µM)	0.002 µg/mL (≈ 0.00368 µM)	0.001 µg/mL (≈ 0.00184 µM)	0.001 µg/mL (≈ 0.00184 µM)	0.003 µg/mL (≈ 0.00552 µM)
